According to patent US4620871A (priority 1980, dated 1986):

How the values were obtained:
[1] = test system: Bean; assay: Inhibition of the decomposition of chlorophyll in bean leaf segments; details: 4 days dark
Description: (§1) The active agent to be tested was dissolved in distilled water to form a 200 ppm solution, and leaf segments of the plants under examination, weighing 200 mg, were floated on the surface of the solution for 4 days in the dark. Thereafter chlorphyll was extracted from the leaf segments with methanol.
(§2) To determine the starting state, chlorophyll was extracted with methanol from untreated leaf segments weighing 200 mg. In the control test the leaf segments, weighing 200 mg, were floated on the surface of distilled water for 4 days in the dark, and then chlorophyll was extracted from the leaf segments with methanol.
(§3) The chlorophyll concentration was determined by measuring the extinction of the extracts at 665 mμ.

[2] = test system: Soybean; assay: Total and protein nitrogen content of soybean (Example 39); format: in vivo
From the text: The effects of 1,4-dihydroxyphthalazine and salts thereof exerted on the total nitrogen content and protein nitrogen content of soybean were examined as described in Example 27. The plants were sprayed with the compositions according to the invention at the beginning of the flowering of the apical cluster.

[3] = test system: Soybean; assay: Inhibition of the decomposition of chlorophyll in soybean leaf segments; details: 4 days dark
Description: as §1, §2, §3

[4] = test system: soybean leaf segments; assay: Stimulation of the protein level of soybean, glycine-14C incorporation (Example 18); details: 24 hours
Description: The active agent to be tested was dissolved in distilled water to form a 200 ppm solution, and soybean leaf segments, weighing 200 mg, were floated on the surface of the solution for 24 hours. In the control test leaf segments, weighing 200 mg, were floated on the surface of distilled water.
The leaf segments were washed with distilled water, and then treated for 3 hours with 20 ml of a solution containing labelled amino acid (glycine-^14 C; activity: 2 μCi). After this exposition period the leaf segments were washed with an aboundant amount of water, and the protein content of the leaf segments was isolated in a manner known per se. Stock solution was prepared from the isolated protein, and the specific radioactivity of the solution was determined by liquid scintillation.

[5] = test system: maize leaves; assay: Fixation of 14CO2 in maize leaves (Example 36); details: 18 hours; for Fixation of 14CO2: fresh weight, control 5.72; for Fixation of 14CO2, %: increase over control
Description: (§4) The biological activities of cytokinin-like factors can be well characterized by measuring the intensity of the photosynthetic carbon dioxide fixation and the incorporation of labelled amino acids into the TCA-insoluble protein fraction. The intensity of photosynthetic carbon dioxide fixation was determined on maize leaves, utilizing ^14 CO2, whereas the incorporation of amino acids was examined on bean leaves, utilizing […]-^14 C.

[6] = test system: Alfalfa; assay: Inhibition of the decomposition of chlorophyll in alfalfa; details: for Chlorophyll content: 200 ppm, 100 mg green plant, control 0.78; for activation at 200 ppm: Medicago sativa, 96 h, read-out: Promotion
Description: as §2, with “Thereafter chlorphyll was extracted from the leaf segments with methanol. To” for “To”, “methanol. […] For alfalfa and maize the chlorphyll contents of 100 mg of green plant were examined.” for “methanol.”

[7] = test system: bean leaves; assay: Incorporation of Gly-2-14C in bean leaves (Example 36); details: 18 hours; for Incorporation of Gly-2-14C: fresh weight, control 3.52; for Incorporation of Gly-2-14C, %: increase over control
Description: as §4

[8] = test system: Bean; assay: Stimulation of photosynthesis, 14CO2 incorporation, bean leaf discs (Example 20); details: 2 hours; for activation at 200 ppm: foliar
Description: The specific radioactivities of the stock solutions were determined by liquid scintillation. In the control test untreated leaf discs were exposed to labelled carbon, dioxide, and the amount of carbon dioxide incorporated under such conditions was regarded as standard.

[9] = test system: Maize; assay: Inhibition of the decomposition of chlorophyll in maize; details: for Chlorophyll content: 100 mg green plant, control 0.65; for activation at 200 ppm: Zea mays, 96 h, read-out: Promotion
Description: as §2, with “Thereafter chlorphyll was extracted from the leaf segments with methanol. To” for “To”, “methanol. […] For alfalfa and maize the chlorphyll contents of 100 mg of green plant were examined.” for “methanol.”

[10] = test system: maize for silage; assay: Maize for silage field tests 1979, Boly (Example 28); format: in vivo
From the text: The effects of the cytokinin-like regulators on the crop yield, crude protein content and real protein content of maize for silage, observed under field conditions in the tests performed in 1979 at the Agricultural Combinate of Boly, Hungary, are listed in Table 20.

[11] = test system: hybrid maize; assay: Grain yield of maize (Example 29); format: in vivo
Description: The compositions according to the invention were applied as seed dressing agents onto the sowing-seeds of hybrid maize in a dosis of 0.5 kg/ha. The powdery compositions were wetted with water prior to application. The stand was sprayed three times during the cultivation period: first at the four-leaves development stage with a dosis of 3 kg/ha, then prior to tasseling with a dosis of 1 kg/ha, and finally prior to pollen ripening with a dosis of 2 kg/ha. The crop was evaluated as May shelled corn.

[12] = test system: Alfalfa; assay: Alfalfa field tests 1979, Boly (Example 26); format: in vivo
From the text: The effects of the compositions according to the invention exerted on the crop yield (green yield), crude protein content, protein nitrogen content and C/N ratio of alfalfa, observed under field conditions in the tests performed in 1979 at the Agricultural Combinate of Boly, Hungary, are listed in Table 17.

Oc1nnc(O)c2ccccc12 [1,4-Dihydroxyphthalazine]
Chlorophyll ([1]; 200 ppm, control 4.2): 5.8 mg | activation at 200 ppm ([1]; foliar, 96 h, read-out: Promotion): 38% | Protein nitrogen content ([2]; control 1.9): 3.8 % of dry substance | Total nitrogen content ([2]; control 2.6): 4.6 % of dry substance | Protein nitrogen content, increase ([2]; in vivo): 100.0% | Total nitrogen content, increase ([2]; in vivo): 77.0% | Chlorophyll ([3]; 200 ppm, control 3.5): 4.2 mg | activation at 200 ppm ([3]; Glycine max, foliar, 96 h, read-out: Promotion): 20% | Radioactivity ([4]; 200 ppm, control 11.9): 16.1 mu Ci/100 mg | activation at 200 ppm ([4]; Glycine max): 35.3%

CCn1cnc2ccccc21 [N--ethyl-benzimidazolium bromide]
Fixation of 14CO2 [5]: 6.72 μCi/g | Fixation of 14CO2, % [5]: 18% | Chlorophyll content [6]: 0.85 mg | activation at 200 ppm [6]: 8.9% | Incorporation of Gly-2-14C [7]: 4.25 μCi/g | Incorporation of Gly-2-14C, % [7]: 21% | activation at 200 ppm [8]: 184% | Chlorophyll content ([9]; 200 ppm): 0.79 mg | activation at 200 ppm [9]: 21.5%

N--bromoethyl-benzimidazolium bromide
Fixation of 14CO2 [5]: 6.46 μCi/g | Fixation of 14CO2, % [5]: 13% | Chlorophyll content [6]: 0.64 mg | Incorporation of Gly-2-14C [7]: 4.36 μCi/g | Incorporation of Gly-2-14C, % [7]: 24% | Stimulation (14CO2 incorporation) ([8]; 200 ppm): 57% | Promotion ([9]; 200 ppm): 9.2% | Chlorophyll content ([9]; 200 ppm): 0.71 mg

Cn1cnc2ccccc21 [N--methyl-benzimidazolium bromide]
Fixation of 14CO2 [5]: 8.12 μCi/g | Fixation of 14CO2, % [5]: 42% | Chlorophyll content [6]: 0.83 mg | activation at 200 ppm [6]: 6.4% | Incorporation of Gly-2-14C [7]: 4.75 μCi/g | Incorporation of Gly-2-14C, % [7]: 35% | activation at 200 ppm [8]: 125% | Chlorophyll content ([9]; 200 ppm): 0.80 mg | activation at 200 ppm [9]: 23%

CC(C)[n+]1c[nH]c2ccccc21.[Cl-] [N--Isopropyl-benzimidazolium chloride, N-isopropyl-benzimidazolium chloride]
Fixation of 14CO2 [5]: 10.92 μCi/g | Fixation of 14CO2, % [5]: 92% | Incorporation of Gly-2-14C [7]: 4.85 μCi/g | Incorporation of Gly-2-14C, % [7]: 35% | P2O5 content ([10]; control 7.5): 9.8 % of dry substance | Crude protein content ([10]; control 13.2): 17.1 % of dry substance | C/N ratio ([10]; control 31.4): 23.5 | Green weight ([10]; control 310.2): 398.2 q/ha | C/N ratio, decrease ([10]; in vivo): 25.4% | Crude protein content, increase ([10]; in vivo): 29.7% | Green weight, increase ([10]; in vivo): 28.4% | P2O5 content, increase ([10]; in vivo): 30.8% | Grain yield, increase ([11]; in vivo): 57.1% | Grain yield ([11]; seed dressing 0.5 kg/ha + sprays 3, 1, 2 kg/ha, control 132.8): 208.5 q/ha | C/N ratio ([12]; control 5.31): 4.20 | P2O5 content ([12]; control 8.3): 10.9 % of dry substance | Crude protein content ([12]; control 21.3): 25.8 % of dry substance | Green yield ([12]; control 120): 142 q/ha | C/N ratio, decrease ([12]; in vivo): 21.0% | Crude protein content, increase ([12]; in vivo): 21.5% | Green yield, increase ([12]; in vivo): 18.7% | P2O5 content, increase ([12]; in vivo): 31.7%
